Experimental findings from BindingDB's records for doi:10.1021/acs.jmedchem.5b00354 (Florida Atlantic University, 2015) are described below.

This test in a line: Inhibition of ADAM17 in human A549 cells assessed as potentiation of gefitinib-mediated inhibition of cell viability by measuring gefitinib IC50 at 40 uM incubated for 1 hr followed by gefitinib addition measured after 72 hrs by CellTiter-Glo assay (Rvb = 8.4 microM). For orientation: ATP-based viability assays read luminescence as a measure of living cells.

A word on the IC50: it is the concentration needed to halve the response being measured. For the molecule `O=C1NC[C@@H](Cc2ccc(O)cc2)N(C[C@@H]2CCCN2C[C@@H](Cc2ccc3ccccc3c2)N2C[C@H](Cc3ccc(O)cc3)N(CCC34CC5CC(CC(C5)C3)C4)C(=O)C2=O)C1=O`, the IC50 is 1900 nM.
